Laboratory results taken from patent publication US4665075A, “Derivatives of hydroxy- or amino-substituted (piperidinylalkyl)quinazolines” (Janssen Pharmaceutica N.V., priority 1985, dated 1987).

Key:
[1] = system: cyanosis, gastric lesions and shock induced by compound 48/80; conditions: rats injected with compound 48/80; cited from earlier work
[2] = system: gastric lesions induced by compound 48/80; assay: Test 2: Effects in gastric lesion tests; lesions induced by compound 48/80; type: in vivo, rat (male, Wistar inbred strain); conditions: oral, 2 hours before compound 48/80 1 mg/kg i.v.; stomachs inspected 4 hours later
Description: Test 2: Effects in gastric lesion tests
The shock, followed by dead, can be avoided if the rats are pretreated with a classical H1 antagonist.
Male rats of a Wistar inbred strain, weighing 220-250 g, were starved overnight, water being available ad libitum. The test compounds were administered orally as a solution or as a suspension in aqueous medium. A control rat and a "blank" rat receive the test compound. One hour later 5-[4-(diphenylmethyl)-1-piperazinyl-methyl]-1-methyl-1H-benzimidazole-2-methanol is adhministered subcutaneously to all rats at the dose of 2.5 mg/kg. […] Five minutes after the injection the intensity of purple-blue coloration (cyanosis) of the extremities was scored as 0 (absent), + (moderate) or ++ (intense). Four hours after the intravenous injection of compound 48/80 the rats were decapitated and the stomachs were removed. Subsequently the stomachs were inspected for distension and contents (blood, fluid, food) and thoroughly rinsed. The macroscopic lesions were scored from 0 to +++, 0 corrsponding to complete absence of visible lesions and the highest score corresponding to reddish rough patches covering more than half the glandular area.
The compounds listed in table 1 are not given for the purpose of limiting the invention thereto but only to exemplify the useful pharmacological activities of all the compounds within the scope of formula (I).

[3] = system: serotonin-induced contraction of the caudal artery of the rat; assay: Test 1: Antagonistic activity on the effect of serotonin on the caudal artery of the rat; conditions: rat caudal artery strips; serotonin 40 ng/ml; measured 5 minutes after adding the drug
Description: Test 1: Antagonistic activity on the effect of serotonin on the caudal artery of the rat
Caudal arteries from fasted male rats (210-235 g) were used in the test. Two helical strips having a length of 5-6 cm and a width of 2 mm were obtained from each artery and mounted vertically in a 100 ml organ bath containing an oxygenated Krebs-Henseleit solution. Submaximal contractions of the arterial strips were produced by adding single doses of serotonin (40 ng/ml) to the organ bath for 2 minutes with each time an interval of 10 minutes. The amplitude of the contraction is measured before and 5 minutes after adding the drug. After washing out, the agonist was added again three times in order to see whether the contraction is restored and normalized.
In this connection the ED50 -values are the minimal concentrations of the concerned drugs which reduce the amplitude of the contraction to at least 50% of its normal value.

| Structure (SMILES) | prevention of the abnormal gastric distension [1] | prevention of the cyanosis of ears and extremities [1] | prevention of the lesions in the glandular area of the stomach [1] | Gastric lesion ED50 (dose at which distension of the stomach and lesions in the glandular area are completely absent in 50% of the test rats) [2] [mg/kg] | Caudal artery ED50 (minimal concentration which reduces the amplitude of the serotonin-induced contraction to at least 50% of its normal value) [3] [ng/mL] |
| --- | --- | --- | --- | --- | --- |
| CN1CCC(=C2c3ccccc3CCc3sccc32)CC1 [pizotifen] | prevent completely | prevent completely | prevent completely |  |  |
| Nc1ccc2c(=O)n(CCCCN3CCC(C(=O)c4ccc(F)cc4)CC3)c(=S)[nH]c2c1 [Compound 11, 7-amino-3-[4-[4-(4-fluorobenzoyl)-1-piperidinyl]butyl]-2,3-dihydro-2-thioxo-4(1H)-quinazolinone] |  |  |  | 0.63 | < 0.63 |
| CC(=O)Nc1ccc2c(=O)n(CCN3CCC(C(=O)c4ccc(F)cc4)CC3)c(=S)[nH]c2c1 [Compound 19, N-[3-[2-[4-(4-fluorobenzoyl)-1-piperidinyl]ethyl]-1,2,3,4-tetrahydro-4-oxo-2-thioxo-7-quinazolinyl]acetamide] |  |  |  | 0.01 | 0.32 |
| CC(=O)Nc1ccc2c(=O)n(CCN3CCC(C(=O)c4ccc(F)cc4)CC3)c(=O)[nH]c2c1 [Compound 22] |  |  |  | 0.04 | 0.37 |
| CN1C[C@H](CNC(=O)OCc2ccccc2)C[C@@H]2c3cccc4c3c(cn4C)C[C@H]21 [metergoline] | prevent completely | prevent completely | prevent completely |  |  |
| Nc1ccc2c(=O)n(CCCCN3CCC(C(=O)c4ccc(F)cc4)CC3)c(=O)[nH]c2c1 [Compound 8, 7-amino-3-[4-[4-(4-fluorobenzoyl)-1-piperidinyl]butyl]-2,4(1H,3H)-quinazolinedione] |  |  |  | 0.04 | 0.32 |
| CN(C)CCCSc1ccccc1NC(=O)/C=C/c1ccccc1 [cinanserin] | prevent completely | prevent completely | prevent completely |  |  |
| NC(=O)C1(N2CCCCC2)CCN(CCCC(=O)c2ccc(F)cc2)CC1 [pipamperone] | prevent completely | prevent completely | prevent completely |  |  |
| CC(=O)Nc1ccc2c(=O)n(CCCCN3CCC(C(=O)c4ccc(F)cc4)CC3)c(=O)[nH]c2c1 [Compound 18, N-[3-[4-[4-(4-fluorobenzoyl)-1-piperidinyl]butyl]-1,2,3,4-tetrahydro-2,4-dioxo-7-quinazolinyl]-acetamide] |  |  |  | 0.08 | 0.32 |
| CN1CCN2c3ccccc3Cc3ccccc3C2C1 (centres unmarked) [mianserin] | prevent completely | prevent completely | prevent completely |  |  |
| O=C(CCCN1CCC2(CC1)C(=O)NCN2c1ccccc1)c1ccc(F)cc1 [spiperone] | prevent completely | prevent completely | prevent completely |  |  |
| Nc1ccc2c(=O)n(CCN3CCC(C(=O)c4ccc(F)cc4)CC3)c(=S)[nH]c2c1 [Compound 9, 7-amino-3-[2-[4-(4-fluorobenzoyl)-1-piperidinyl]ethyl]-2,3-dihydro-2-thioxo-4(1H)-quinazolinone] |  |  |  | 0.005 | 0.18 |
| Nc1ccc2c(=O)n(CCN3CCC(C(=O)c4ccc(F)cc4)CC3)c(=O)[nH]c2c1 [Compound 12, 7-amino-3-[2-[4-(4-fluorobenzoyl)-1-piperidinyl]ethyl]-2,4(1H,3H)-quinazolinedione] |  |  |  | 0.04 | < 0.63 |
| CC[C@@H](CO)NC(=O)[C@@H]1C=C2c3cccc4c3c(cn4C)C[C@H]2N(C)C1 [methysergide] | prevent completely | prevent completely | prevent completely |  |  |
| CN1CCC(=C2c3ccccc3C=Cc3ccccc32)CC1 [cyproheptadine] | prevent completely | prevent completely | prevent completely |  |  |
